Converted amounts (≈) assume the structure as drawn. Blank lines part the entries; values can stand above or below the compound they belong to.
Tests used:
[1] = biological target: T1, Dihydroorotate dehydrogenase (quinone), mitochondrial (Homo sapiens, UniProt Q02127); assay: Inhibition of human DHODH incubated for 30 mins
[2] = biological target: T1, Dihydroorotate dehydrogenase (quinone), mitochondrial; assay: Inhibition of human DHODH at 100 nM for 30 mins relative to control
[3] = biological target: T1, Dihydroorotate dehydrogenase (quinone), mitochondrial; assay: Inhibition of human DHODH at 1 uM for 30 mins relative to control
[4] = Toxicity in BALB/c mouse assessed as change in blood HGB administered at 300 mg/kg, po for 14 days; assay type: organism-based; details: in vivo, 336 h, time 14 day
[5] = Toxicity in BALB/c mouse assessed as change in blood MPV administered at 300 mg/kg, po for 14 days; assay type: organism-based; details: in vivo, 336 h, time 14 day
[6] = biological target: Voltage-gated inwardly rectifying potassium channel KCNH2 (Homo sapiens, UniProt Q12809); assay: Inhibition of human ERG; assay type: toxicity
Chain of Voltage-gated inwardly rectifying potassium channel KCNH2 (Q12809 whole entry): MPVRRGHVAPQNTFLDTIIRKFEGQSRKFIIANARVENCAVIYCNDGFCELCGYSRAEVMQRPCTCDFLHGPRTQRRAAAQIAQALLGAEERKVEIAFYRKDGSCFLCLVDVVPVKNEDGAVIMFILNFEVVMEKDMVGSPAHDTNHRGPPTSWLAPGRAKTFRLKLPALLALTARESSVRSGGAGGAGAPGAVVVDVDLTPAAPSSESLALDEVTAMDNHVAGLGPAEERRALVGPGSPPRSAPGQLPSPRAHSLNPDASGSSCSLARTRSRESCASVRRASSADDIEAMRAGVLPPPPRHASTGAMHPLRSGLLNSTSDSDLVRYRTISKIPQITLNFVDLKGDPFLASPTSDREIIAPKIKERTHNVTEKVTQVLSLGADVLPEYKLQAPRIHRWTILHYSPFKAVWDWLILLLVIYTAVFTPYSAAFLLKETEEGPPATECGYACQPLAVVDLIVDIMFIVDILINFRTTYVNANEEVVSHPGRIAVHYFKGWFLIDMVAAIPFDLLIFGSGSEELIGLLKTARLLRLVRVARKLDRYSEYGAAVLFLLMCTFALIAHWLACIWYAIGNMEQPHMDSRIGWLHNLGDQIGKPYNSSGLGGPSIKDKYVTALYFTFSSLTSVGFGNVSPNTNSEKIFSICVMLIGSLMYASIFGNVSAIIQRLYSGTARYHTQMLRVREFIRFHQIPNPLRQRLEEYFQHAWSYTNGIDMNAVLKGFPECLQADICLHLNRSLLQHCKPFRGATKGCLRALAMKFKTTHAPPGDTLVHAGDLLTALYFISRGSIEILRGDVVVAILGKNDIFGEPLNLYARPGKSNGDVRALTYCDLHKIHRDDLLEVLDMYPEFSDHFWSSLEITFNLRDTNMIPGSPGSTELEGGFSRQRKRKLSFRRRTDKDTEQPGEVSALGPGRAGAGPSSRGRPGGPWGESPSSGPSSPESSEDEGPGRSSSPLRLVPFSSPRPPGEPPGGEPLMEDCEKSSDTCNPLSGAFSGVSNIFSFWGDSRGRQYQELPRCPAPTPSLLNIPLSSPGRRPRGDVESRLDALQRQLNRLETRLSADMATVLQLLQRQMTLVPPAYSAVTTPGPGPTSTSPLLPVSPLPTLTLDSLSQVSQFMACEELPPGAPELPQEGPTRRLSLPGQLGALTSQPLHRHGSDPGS

[7] = Cytotoxicity against human HCoEpiC cells incubated for 96 hrs by MTT assay; assay type: toxicity, cell-based
A-375 = assay: Antiproliferative activity against human A-375 cells incubated for 96 hrs by MTT assay; assay type: functional, cell-based; details: A-375, 96 h
Raji = assay: Antiproliferative activity against human Raji cells incubated for 96 hrs by MTT assay; assay type: functional, cell-based
SUD4 = assay: Antiproliferative activity against human SU-DHL-4 cells incubated for 96 hrs by MTT assay; assay type: functional, cell-based; details: SU-DHL-4, 96 h
[8] = Selectivity index ratio of IC50 for human HL7702 cells to IC50 for human Raji cells; assay type: toxicity; details: HL7702 cells and Raji cells, read-out: Ratio IC50
U-937 = assay: Antiproliferative activity against human U-937 cells incubated for 96 hrs by MTT assay; assay type: functional, cell-based; details: U-937, 96 h
[9] = Toxicity in BALB/c mouse assessed as change in blood MCH administered at 300 mg/kg, po for 14 days; assay type: organism-based; details: in vivo, 336 h, time 14 day
[10] = Toxicity in BALB/c mouse assessed as change in blood MCHC administered at 300 mg/kg, po for 14 days; assay type: organism-based; details: in vivo, 336 h, time 14 day
[11] = Cytotoxicity against human NCM460 cells incubated for 96 hrs by MTT assay; assay type: toxicity, cell-based
[12] = Lipophilicity, logP of compound; assay type: physicochemical; details: octanol/water
[13] = Toxicity in BALB/c mouse assessed as change in blood RDW administered at 300 mg/kg, po for 14 days; assay type: organism-based; details: in vivo, 336 h, time 14 day
[14] = Toxicity in BALB/c mouse assessed as histopathological changes in lung administered at 300 mg/kg, po for 14 days; assay type: organism-based; details: in vivo, 336 h, time 14 day
[15] = Toxicity in BALB/c mouse assessed as change in blood RBC administered at 300 mg/kg, po for 14 days; assay type: organism-based; details: in vivo, 336 h, time 14 day
HCT-116 = assay: Antiproliferative activity against human HCT-116 cells incubated for 96 hrs by MTT assay; assay type: functional, cell-based; details: HCT-116, 96 h
[16] = Toxicity in BALB/c mouse assessed as change in blood MCV administered at 300 mg/kg, po for 14 days; assay type: organism-based; details: in vivo, 336 h, time 14 day
[17] = Toxicity in BALB/c mouse assessed as histopathological changes in spleen administered at 300 mg/kg, po for 14 days; assay type: organism-based; details: in vivo, 336 h, time 14 day
Kasumi 1 = assay: Antiproliferative activity against human Kasumi 1 cells incubated for 96 hrs by MTT assay; assay type: functional, cell-based; details: Kasumi 1, 96 h
[18] = Toxicity in BALB/c mouse assessed as change in blood lymphocytes administered at 300 mg/kg, po for 14 days; assay type: organism-based, Lymphocyte; details: in vivo, 336 h, time 14 day
[19] = Toxicity in BALB/c mouse assessed as change in blood PLT administered at 300 mg/kg, po for 14 days; assay type: organism-based; details: in vivo, 336 h, time 14 day
[20] = Toxicity in BALB/c mouse assessed as histopathological changes in kidney administered at 300 mg/kg, po for 14 days; assay type: organism-based; details: in vivo, 336 h, time 14 day
[21] = Cytotoxicity against human HL7702 cells incubated for 96 hrs by MTT assay; assay type: toxicity, cell-based, L02
[22] = Toxicity in BALB/c mouse assessed as increase in albumin to globulin ratio administered at 300 mg/kg, po for 14 days; assay type: organism-based; details: in vivo, 336 h, time 14 day
[23] = Toxicity in BALB/c mouse assessed as induction of liver inflammation administered at 300 mg/kg, po for 14 days; assay type: organism-based; details: in vivo, 336 h, time 14 day
[24] = Toxicity in BALB/c mouse assessed as change in blood neutrophil administered at 300 mg/kg, po for 14 days; assay type: organism-based; details: in vivo, 336 h, time 14 day
KG-1 = assay: Antiproliferative activity against human KG-1 cells incubated for 96 hrs by MTT assay; assay type: functional, cell-based; details: KG-1, 96 h
[25] = Toxicity in BALB/c mouse assessed as change in blood HCT administered at 300 mg/kg, po for 14 days; assay type: organism-based; details: in vivo, 336 h, time 14 day
[26] = Aqueous solubility of compound; assay type: physicochemical; details: buffer
[27] = Toxicity in BALB/c mouse assessed as histopathological changes in liver administered at 300 mg/kg, po for 14 days; assay type: organism-based; details: in vivo, 336 h, time 14 day
[28] = Toxicity in BALB/c mouse assessed as change in blood WBC administered at 300 mg/kg, po for 14 days; assay type: organism-based; details: in vivo, 336 h, time 14 day
[29] = biological target: T1, Dihydroorotate dehydrogenase (quinone), mitochondrial; assay: Potency index, ratio of teriflunomide IC50 to test compound IC50 for human DHODH

T1 sequence (Q02127 whole entry): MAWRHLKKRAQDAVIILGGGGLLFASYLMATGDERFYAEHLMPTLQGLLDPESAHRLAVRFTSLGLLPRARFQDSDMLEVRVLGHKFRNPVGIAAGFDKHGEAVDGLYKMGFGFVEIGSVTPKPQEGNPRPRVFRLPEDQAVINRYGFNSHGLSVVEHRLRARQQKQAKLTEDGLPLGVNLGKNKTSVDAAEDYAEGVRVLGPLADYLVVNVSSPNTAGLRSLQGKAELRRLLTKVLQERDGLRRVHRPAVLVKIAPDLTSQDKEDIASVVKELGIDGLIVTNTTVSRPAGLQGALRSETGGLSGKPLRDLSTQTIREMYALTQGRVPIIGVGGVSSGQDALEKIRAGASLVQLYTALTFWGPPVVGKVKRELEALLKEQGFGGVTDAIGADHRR

Compound: O=C(c1ccccc1)c1ccc(Nc2ncccc2C(=O)O)c(Cl)c1
IC50 [1]: 0.0635 µM
inhibition [2]: 62.4%
inhibition [3]: 88.1%

Compound: C/C(O)=C(\C#N)C(=O)Nc1cc(O[C@@H](C)C(F)(F)F)c(C#N)cc1F
inhibition [2]: 31.8%
inhibition [3]: 76.3%

Compound: COc1cccc(C(=O)c2cc(F)c(NC(=O)/C(C#N)=C(/C)O)cc2O[C@@H](C)C(F)(F)F)c1
IC50 [1]: 0.0691 µM
inhibition [2]: 57.2%
inhibition [3]: 92.2%

Compound: O=C(c1ccccc1)c1cc(F)c(Nc2ncccc2C(=O)O)c(F)c1
IC50 [1]: 0.0351 µM
inhibition [2]: 67.2%
inhibition [3]: 90.4%

Compound: C/C(O)=C(\C#N)C(=O)Nc1ccc(C(F)(F)F)cc1
inhibition [2]: 21.5%

Compound: COc1ccc(C(=O)c2cc(F)c(NC(=O)/C(C#N)=C(/C)O)cc2O[C@@H](C)C(F)(F)F)cc1
inhibition [2]: 52.1%
inhibition [3]: 90%

Compound: O=C(c1ccccc1)c1ccc(Nc2ncccc2C(=O)O)c(F)c1
IC50 [1]: 0.0661 µM
inhibition [2]: 57.7%
inhibition [3]: 86.3%

Compound: C/C(O)=C(\C#N)C(=O)Nc1cc(O[C@@H](C)C(F)(F)F)c(C(=O)c2ccccc2F)cc1F
Activity [4]: Non-Toxic
Activity [5]: Non-Toxic
IC50 [6]: > 100 µM
IC50 at 96 h [7]: 60.5 µM
IC50 (A-375): 0.95 µM
IC50 (Raji): 0.1 µM
IC50 [1]: 0.0239 µM
IC50 (SUD4): 1.65 µM
selectivity ratio [8]: 21
IC50 (U-937): 0.52 µM
Activity [9]: Non-Toxic
Activity [10]: Non-Toxic
IC50 at 96 h [11]: > 10 µM
logP [12]: 2.16
Activity [13]: Non-Toxic
Activity [14]: Non-Toxic
Activity [15]: Non-Toxic
IC50 (HCT-116): 0.64 µM
Activity [16]: Non-Toxic
Activity [17]: Non-Toxic
inhibition [2]: 79.1%
IC50 (Kasumi 1): 0.41 µM
Activity [18]: Non-Toxic
inhibition [3]: 96.9%
Activity [19]: Non-Toxic
Activity [20]: Non-Toxic
IC50 at 96 h [21]: 2.1 µM
Activity [22]: Toxic
Activity [23]: Toxic
Activity [24]: Non-Toxic
IC50 (KG-1): 0.53 µM
Activity [25]: Non-Toxic
solubility [26]: 109 µg/mL (≈ 241 µM)
Activity [27]: Toxic
Activity [28]: Non-Toxic

Compound: CCC(C)Oc1cc(NC(=O)/C(C#N)=C(/C)O)c(F)cc1C(=O)c1ccccc1 (stereo unspecified)
IC50 [1]: 0.0356 µM
inhibition [2]: 65.4%
inhibition [3]: 90.1%

Compound: C/C(O)=C(\C#N)C(=O)Nc1cc(O[C@@H](C)C(F)(F)F)c(C(=O)c2cccc(F)c2)cc1F
IC50 [1]: 0.0635 µM
inhibition [2]: 59.3%
inhibition [3]: 92.1%

Compound: C/C(O)=C(\C#N)C(=O)Nc1cc(O[C@@H](C)C(F)(F)F)c(C(=O)c2ccc3ccccc3c2)cc1F
inhibition [2]: 53.4%
inhibition [3]: 90.2%

Compound: C/C(O)=C(\C#N)C(=O)Nc1cc(O[C@@H](C)C(F)(F)F)c(C(=O)c2ccccc2)cc1F
IC50 [1]: 0.029 µM
Ratio IC50 [29]: 14
inhibition [2]: 71.5%
inhibition [3]: 95.3%

Compound: C/C(O)=C(\C#N)C(=O)Nc1cc(O[C@@H](C)C(F)(F)F)c(C(=O)c2cccc(Cl)c2)cc1F
IC50 [1]: 0.0548 µM
inhibition [2]: 61.8%
inhibition [3]: 93.7%

Compound: C/C(O)=C(\C#N)C(=O)Nc1cc(O[C@@H](C)C(F)(F)F)c(C(=O)c2ccc(F)cc2)cc1F
IC50 [1]: 0.0718 µM
inhibition [2]: 56.4%
inhibition [3]: 91.6%

Compound: C/C(O)=C(\C#N)C(=O)Nc1cc(O[C@@H](C)C(F)(F)F)c(C(=O)c2ccc(Cl)cc2)cc1F
IC50 [1]: 0.0705 µM
inhibition [2]: 56.8%
inhibition [3]: 91.3%

The remaining lines, values ahead:

inhibition [2]: 31.7%
inhibition [3]: 74.1%
Compound: C/C(O)=C(\C#N)C(=O)Nc1ccc(C(=O)c2ccccc2)c(F)c1

IC50 [1]: 0.0371 µM
inhibition [2]: 66.1%
inhibition [3]: 89.9%
Compound: C/C(O)=C(\C#N)C(=O)Nc1cc(OC(C)C)c(C(=O)c2ccccc2)cc1F

inhibition [2]: 49.8%
inhibition [3]: 83.1%
Compound: CCOc1cc(NC(=O)/C(C#N)=C(/C)O)c(F)cc1C(=O)c1ccccc1

IC50 [1]: 0.178 µM
inhibition [2]: 38.3%
inhibition [3]: 80.4%
Compound: O=C(c1ccccc1)c1ccc(Nc2ncccc2C(=O)O)cc1

inhibition [2]: 32.1%
inhibition [3]: 70.7%
Compound: C/C(O)=C(\C#N)C(=O)Nc1ccc(C(=O)c2ccccc2)cc1F

inhibition [2]: 48.5%
inhibition [3]: 82.4%
Compound: COc1cc(NC(=O)/C(C#N)=C(/C)O)c(F)cc1C(=O)c1ccccc1

inhibition [2]: 30.8%
inhibition [3]: 57.3%
Compound: C/C(O)=C(\C#N)C(=O)Nc1ccc(C(=O)c2ccccc2)cc1

inhibition [2]: 43.8%
inhibition [3]: 76.3%
Compound: C/C(O)=C(\C#N)C(=O)Nc1cc(F)c(C(=O)c2ccccc2)cc1F

Source: ChEMBL document CHEMBL5352423, “Discovery of potent human dihydroorotate dehydrogenase inhibitors based on a benzophenone scaffold” (Eur J Med Chem, 2022)
